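Following 48 hours of exposure in 96-well plates, responses at five concentrations were used to interpolate endpoints linearly. Abbreviation: GI50, concentration required for 50% inhibition of growth.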 Activity calls are given as the source filed them. Rule as the data show it: active = GI50 up to about 1.1 µM and inactive = higher. Bounds are passed on as bounds.

Some test systems named below: 786-0; DU-145; HCC 2998; HCT-116; HL-60; HOP-62; Hs-578T; LOX IMVI; MCF7; MDA-MB-435; Malme-3M; NCI-H23; NCI-H460; OVCAR-3; RPMI-8226; RXF 393; SK-OV-3; SNB-75; UACC-62; K562.
Assay in all cases: NCI tumour cell line growth inhibition, 48 h

On to `CO[C@H]1[C@@H](O)[C@@H](C)O[C@@H](O[C@H]2CC[C@@]3(C)[C@H](CC[C@@H]4[C@@H]3CC[C@]3(C)[C@@H](C5=CC(=O)OC5)CC[C@]43O)C2)[C@@H]1O` [ODOROSIDE H], for which the GI50 with 786-0 is 0.00453 µM (active); in the assay with DU-145 it was 0.00377 µM (active); in the assay with HCC 2998 it was 0.0149 µM (active); in the assay with HCT-116, 0.00482 µM (active); in the assay with HL-60, 0.00378 µM (active); in the assay on HOP-62, 0.00361 µM (active). The GI50 with Hs-578T is 0.00454 µM (active); with LOX IMVI, 0.00689 µM (active); with MCF7 it was 0.00773 µM (active); with MDA-MB-435, 0.00908 µM (active); in the assay on Malme-3M, 0.00441 µM (active); with NCI-H23, 0.00462 µM (active). The GI50 in the assay with NCI-H460 is 0.003 µM (active); in the assay on OVCAR-3 it was 0.00531 µM (active); in the assay on RPMI-8226, 0.0111 µM (active); in the assay with RXF 393 it was 0.00394 µM (active); in the assay on SK-OV-3, 0.00964 µM (active); in the assay with SNB-75 it was 0.00601 µM (active). In the assay on UACC-62, the GI50 was 0.00689 µM (active).
In the case of `CCCCCCCCCCCCCCCCNc1nc(=O)n(C2OC(C)C(O)C2O)cc1F` (configuration not stated), the GI50 in the assay on 786-0 is 19.9 µM (inactive); in the assay on DU-145, 19.5 µM (inactive); in the assay with HCC 2998 it was 16.9 µM (inactive); with HCT-116 it was 18.4 µM (inactive); in the assay with HL-60, 14.5 µM (inactive); with HOP-62 it was 16.4 µM (inactive). Further, the GI50 in the assay on Hs-578T was 21.8 µM (inactive); with LOX IMVI it was 24.3 µM (inactive); with MCF7, 17 µM (inactive); with MDA-MB-435 it was 15.5 µM (inactive); in the assay on Malme-3M it was 23.1 µM (inactive); in the assay on NCI-H23 it was 18 µM (inactive). For the same molecule, the GI50 in the assay on NCI-H460 is 17 µM (inactive); with OVCAR-3, 17.5 µM (inactive); with RPMI-8226, 10.6 µM (inactive); in the assay on RXF 393 it was 20.7 µM (inactive); in the assay on SK-OV-3, 22.9 µM (inactive); in the assay on SNB-75 it was 18.5 µM (inactive). In addition, in the assay on UACC-62, the GI50 was 15.6 µM (inactive).
With `CN1CC2=C(OC(N)=C(C#N)C2c2cccs2)/C(=C/c2cccs2)C1` (configuration not stated), the GI50 is 31.3 µM (inactive) with 786-0; 23.4 µM (inactive) in the assay on DU-145; 25.6 µM (inactive) in the assay on HCC 2998; 8.43 µM (inactive) with HCT-116; 1.81 µM (inactive) in the assay with HL-60; 19.3 µM (inactive) in the assay with HOP-62. For the same molecule, the GI50 is > 100 µM (inactive) in the assay with Hs-578T; 10.3 µM (inactive) in the assay on K562; 13.9 µM (inactive) in the assay on LOX IMVI; 0.223 µM (active) with MCF7; 6.1 µM (inactive) with MDA-MB-435; 8.65 µM (inactive) in the assay on Malme-3M. The GI50 is 7.18 µM (inactive) in the assay on NCI-H23; 17.7 µM (inactive) with NCI-H460; 15.8 µM (inactive) in the assay with OVCAR-3; 4.45 µM (inactive) in the assay on RPMI-8226; 10.1 µM (inactive) with RXF 393; 55.7 µM (inactive) with SK-OV-3. In the assay on UACC-62, the GI50 is 19.7 µM (inactive).
With `OCCC/N=C1N=C(Cl)/C(=C\c2ccccc2)N\1`, the GI50 with 786-0, in the assay on DU-145, in the assay with HCC 2998, in the assay with HCT-116, in the assay on HL-60 and in the assay with Hs-578T was > 100 µM (inactive) in each case. Moreover, the GI50 with K562, in the assay with LOX IMVI, with MCF7, with MDA-MB-435, in the assay on Malme-3M and in the assay on NCI-H23 was > 100 µM (inactive) each time. Further, the GI50 in the assay with RPMI-8226, in the assay on RXF 393, in the assay with SK-OV-3 and with SNB-75 was > 100 µM (inactive) in each case.
For `CCOC(=O)c1sc2c(c1OC(=O)c1ccccc1)c(=O)n(-c1ccccc1)c(=S)n2-c1ccccc1`, the GI50 in the assay with 786-0 was 15.9 µM (inactive); in the assay with DU-145, 34.1 µM (inactive); in the assay with HCC 2998, 25.1 µM (inactive); in the assay on HCT-116, 16.2 µM (inactive); in the assay with HL-60, 36 µM (inactive); in the assay with HOP-62 it was 22.9 µM (inactive). Further, the GI50 is 23.6 µM (inactive) in the assay on Hs-578T; 28.4 µM (inactive) in the assay on K562; 40.3 µM (inactive) with LOX IMVI; 29.4 µM (inactive) in the assay with MCF7; 20.9 µM (inactive) in the assay on MDA-MB-435; 21.7 µM (inactive) in the assay on Malme-3M. The GI50 in the assay on NCI-H23 was 21 µM (inactive); in the assay with NCI-H460, 19.3 µM (inactive); in the assay with OVCAR-3 it was 24.5 µM (inactive); in the assay with RPMI-8226 it was 40.2 µM (inactive); in the assay on RXF 393, 43.5 µM (inactive); with SK-OV-3 it was 38.2 µM (inactive). For the same molecule, the GI50 in the assay on UACC-62 was 23.7 µM (inactive).
Turning to `CN1CCN(Cn2nc(-c3ccccc3)n(/N=C/c3ccc(-c4ccc(Cl)cc4Cl)o3)c2=S)CC1`, the GI50 in the assay on 786-0 is 13.1 µM (inactive); in the assay on DU-145 it was 8.91 µM (inactive); in the assay on HCC 2998, 12.8 µM (inactive); with HCT-116, 3.66 µM (inactive); in the assay with HL-60, 4.58 µM (inactive); in the assay with HOP-62, 11.4 µM (inactive). The GI50 with Hs-578T is 7.91 µM (inactive); in the assay on K562, 2.39 µM (inactive); in the assay on LOX IMVI it was 13 µM (inactive); in the assay with MCF7, 12.4 µM (inactive); in the assay on MDA-MB-435, 11.4 µM (inactive); with NCI-H23, 18.7 µM (inactive). Further, the GI50 in the assay with NCI-H460 was 5.61 µM (inactive); with OVCAR-3, 11.7 µM (inactive); in the assay with RPMI-8226, 8.61 µM (inactive); in the assay on RXF 393 it was 4.22 µM (inactive); with SK-OV-3, 13.5 µM (inactive).
For `O=c1[nH]nc(-c2ccccc2)n1/N=C/c1ccncc1`, the GI50 is > 100 µM (inactive) with 786-0; > 100 µM (inactive) with DU-145; > 100 µM (inactive) with HCC 2998; 53.6 µM (inactive) with HCT-116; > 100 µM (inactive) with HL-60; > 100 µM (inactive) in the assay on HOP-62. The GI50 is 26.2 µM (inactive) in the assay on Hs-578T; > 100 µM (inactive) with K562; > 100 µM (inactive) in the assay with LOX IMVI; > 100 µM (inactive) in the assay on MCF7; > 100 µM (inactive) with MDA-MB-435; > 100 µM (inactive) with Malme-3M. Also, the GI50 in the assay on NCI-H23 was > 100 µM (inactive); with NCI-H460, > 100 µM (inactive); in the assay with OVCAR-3, > 100 µM (inactive); in the assay with RPMI-8226, > 100 µM (inactive); in the assay with RXF 393 it was 62.5 µM (inactive); in the assay with SNB-75 it was 81.3 µM (inactive). Moreover, the GI50 in the assay with UACC-62 is > 100 µM (inactive).
As for `CCN(CC)c1ccc(C2NC(=O)c3ccccc3N2)cc1` (configuration not stated), the GI50 in the assay with 786-0 is 2.99 µM (inactive); in the assay on DU-145, 1.48 µM (inactive); with HCC 2998, 2.19 µM (inactive); in the assay with HCT-116, 1.48 µM (inactive); in the assay with HL-60, 0.522 µM (active); in the assay on HOP-62 it was 5.7 µM (inactive). Also, the GI50 with Hs-578T is 9.64 µM (inactive); in the assay with K562, 1.27 µM (inactive); with LOX IMVI, 2.95 µM (inactive); with MCF7, 3.73 µM (inactive); in the assay on MDA-MB-435, 0.698 µM (active); with Malme-3M it was > 28.4 µM (inactive). Besides, the GI50 is 2.77 µM (inactive) in the assay on NCI-H23; 1.21 µM (inactive) in the assay on NCI-H460; 2.82 µM (inactive) in the assay on OVCAR-3; 3.37 µM (inactive) in the assay on RPMI-8226; 7.52 µM (inactive) in the assay on RXF 393; 3.74 µM (inactive) in the assay on SK-OV-3. Further, the GI50 in the assay with UACC-62 was 3.1 µM (inactive).
In the case of `CCOC(=O)c1[nH]c(Br)c(-c2ccc(OC)c(OC)c2)c1Br`, the GI50 was 0.0334 µM (active) in the assay on 786-0; 0.0476 µM (active) in the assay on DU-145; 0.199 µM (active) with HCC 2998; 0.0183 µM (active) in the assay on HCT-116; 0.0679 µM (active) with HL-60; 0.0608 µM (active) in the assay with HOP-62. Further, the GI50 in the assay with Hs-578T was 0.0369 µM (active); in the assay on K562, 0.0121 µM (active); in the assay with LOX IMVI, 0.0179 µM (active); with MCF7, 0.245 µM (active); with MDA-MB-435, 0.0091 µM (active); with Malme-3M, 1.71 µM (inactive). Besides, the GI50 in the assay with NCI-H23 was 0.0891 µM (active); with NCI-H460, 0.766 µM (active); in the assay with OVCAR-3 it was 0.0163 µM (active); with RPMI-8226, 0.01 µM (active); in the assay on RXF 393, 0.00906 µM (active); with SNB-75, 0.0259 µM (active). The GI50 in the assay with UACC-62 was 0.0418 µM (active).
On to `CC(C)[C@@H]1CC[C@@H](C)C[C@H]1OC(=O)c1c2n(c3ccccc13)C[C@H]1OC(C)(C)O[C@@H]21`, for which the GI50 was 16.5 µM (inactive) in the assay on 786-0; 20 µM (inactive) in the assay on DU-145; 26.3 µM (inactive) with HCC 2998; 4.36 µM (inactive) in the assay on HCT-116; 5.56 µM (inactive) in the assay on HL-60; 27.5 µM (inactive) in the assay with HOP-62. Besides, the GI50 with Hs-578T was 16.7 µM (inactive); in the assay with K562, 4.53 µM (inactive); in the assay on LOX IMVI, 6.18 µM (inactive); with MCF7, 14.1 µM (inactive); with MDA-MB-435, 30.5 µM (inactive); in the assay on Malme-3M, 7.64 µM (inactive). The GI50 in the assay with NCI-H23 is 5.77 µM (inactive); in the assay on OVCAR-3, 18.2 µM (inactive); with RPMI-8226, 3.61 µM (inactive); with RXF 393, 13.7 µM (inactive); in the assay on SK-OV-3 it was 21.3 µM (inactive); in the assay with UACC-62 it was 18 µM (inactive).
Consider `CCC1CC(C)C(O)/C=C/C=C/CC(C)OC(=O)CC(O)C(OC)C1OC1OC(C)CC(O)(C(C)=O)C1O` (configuration not stated), for which the GI50 with 786-0 is > 100 µM (inactive); in the assay on DU-145, 96.6 µM (inactive); in the assay with HCC 2998, 21.7 µM (inactive); in the assay on HCT-116 it was > 100 µM (inactive); with HL-60 it was 21.8 µM (inactive); in the assay with HOP-62 it was 39.7 µM (inactive). The GI50 with Hs-578T was 19.7 µM (inactive); in the assay with LOX IMVI it was > 100 µM (inactive); with MCF7, 40.3 µM (inactive); with MDA-MB-435 it was > 100 µM (inactive); in the assay with Malme-3M, 38.8 µM (inactive); in the assay with NCI-H23, 45.2 µM (inactive). Besides, the GI50 in the assay on OVCAR-3 is 20.3 µM (inactive); in the assay with RPMI-8226 it was 48.8 µM (inactive); with RXF 393, 44.7 µM (inactive); in the assay on SK-OV-3 it was > 100 µM (inactive); in the assay on SNB-75, 15.5 µM (inactive); with UACC-62, > 100 µM (inactive).

These data come from ChEMBL document CHEMBL1201862, “PubChem BioAssay data set” (2004).
